Assay results as given in patent US20100028319A1, “COMPOSITION FOR PREVENTION OR TREATMENT OF DIABETES” (KANEKA CORPORATION, priority 2007, published 2010).

What was measured:
HIT-T15 cells [1] = test: Effects on ATP production (intracellular ATP level, ATPLite) in HIT-T15 cells; format: cell-based; settings: 24 h + 24 h cultivation
Experimental: Ham'F12 medium (GIBCO) containing 200 units of penicillin (GIBCO), […] streptomycin (GIBCO), and 10% fetal bovine serum (GIBCO) is normally used as a growth medium for cultivating HIT-T15 cells.
A growth medium containing a fetal bovine serum at a concentration of 0.5% was placed in each well of a 96-well microplate, and HIT-T15 cells were seeded in the wells at a density of 1×10^4 cells/well. Next day, the growth medium of each well was replaced with a growth medium containing 0.5% fetal bovine serum, in which reduced coenzyme A was further added to a final concentration of 6.25, 12.5, 25, 50 or 100 μg/ml. Twenty-four hours later, the medium of each well was removed and replaced with a growth medium (containing 10% fetal bovine serum) in which reduced coenzyme A was added at the same concentration as mentioned above, and cultivation was continued for another 24 hours. After washing three times with PBS, the intracellular ATP level was measured using ATPLite (PerkinElmer).
A growth medium containing a fetal bovine serum at a concentration of 0.5% was placed in each well of a 96-well microplate, and the cells were seeded in the wells at a density of 1×10^4 cells/well. Next day, the growth medium of each well was replaced with a growth medium containing 0.5% fetal bovine serum, in which reduced coenzyme A or three kinds of coenzyme A precursors (pantothenic aid, pantethine, cystein) or oxidized coenzyme A was added. The coenzyme A precursors and the oxidized coenzyme A were added at the same molar concentrations as that of the reduced coenzyme A. Twenty-four hours later, the medium of each well was removed and replaced with a growth medium (containing 10% fetal bovine serum) in which reduced coenzyme A, the coenzyme A precursor, or oxidized coenzyme A was added at the same concentration as mentioned above, and cultivation was continued for another 24 hours. After washing three times with PBS, the intracellular ATP level was measured using ATPLite (PerkinElmer).

HIT-T15 cells [2] = test: Glucose-responsive insulin secretion in HIT-T15 cells (ELISA); format: cell-based; settings: 50 μg/ml reduced coenzyme A; 20 mM glucose load; supernatant collected at intervals of 30 minutes; FIG. 3
Experimental: HIT-T15 cells were seeded in the wells of a 96-well plate at a density of 50,000 cells/100 μl medium/well. An RPMI 1640 medium (GIBCO) containing 1% fetal bovine serum and 6 mM glucose was used at this time. Twenty-four hours later, the medium of each well was replaced with an RPMI 1640 medium (containing 1% fetal bovine serum and 6 mM glucose) in which reduced coenzyme A was added to a final concentration of 50 μg/ml. Another 24 hours later, the medium of each well was replaced with an RPMI 1640 medium (containing 10% fetal bovine serum and 6 mM glucose) in which reduced coenzyme A was added to a final concentration of 50 μg/ml. Yet another 24 hours later, the wells were washed with Krebs-Ringer buffer containing 10 mM of HEPES (KRB-HEPES), and further added with 100 μl of KRB-HEPES, followed by culturing for one hour. Next, after removal of the KRB-HEPES, the wells were washed with the same buffer. To the wells was added 100 μl of KRB-HEPES containing 20 mM of glucose, and the supernatant liquid was collected at intervals of 30 minutes for storing frozen. At a later date, the insulin amount in the supernatant liquid samples was assayed using ELISA (Lebis).

[3] = same molar concentrations, FIG. 2

CC(C)(COP(=O)(O)OP(=O)(O)OC[C@H]1O[C@@H](n2cnc3c(N)ncnc32)[C@H](O)[C@@H]1OP(=O)(O)O)[C@@H](O)C(=O)NCCC(=O)NCCS [reduced coenzyme A]
intracellular ATP level in HIT-T15 cells (HIT-T15 cells [1]; reduced coenzyme A added at 6.25, 12.5, 25, 50 or 100 μg/ml, FIG. 1): significantly increased | ATP production in comparison to addition of oxidized coenzyme A (HIT-T15 cells [1]; [3]): promoted ATP production significantly in comparison to addition of oxidized coenzyme A | ATP production in comparison to additions of the precursors (pantothenic acid, pantethine, cystein) and a mixture of the three precursors (HIT-T15 cells [1]; [3]): promoted ATP production significantly in comparison to additions of the precursors | glucose-responsive insulin secretion in HIT-T15 cells (HIT-T15 cells [2]): significantly promoted
